Values quoted from earlier work in patent publication US7317103B2, “Imaging agents for diagnosis of Parkinson's disease” (Molecular Insight Pharmaceuticals, Inc., priority 2000, dated 2008).

Settings: Tc-99m labeled tropane analog, Kung et al

CN1[C@H]2CC[C@@H]1[C@@H](CN(CC[S-])CC[N-]CC[S-])[C@@H](c1ccc(Cl)cc1)C2.[O]=[99Tc+4] [TRODAT]
absolute brain uptake: very low
